# Results as given in patent US10681908B2, “Molecules having pesticidal utility, and intermediates, compositions, and processes, related thereto” (Dow AgroSciences LLC, priority 2016, dated 2020).
# Where two headings read alike, the source gives them in different places.
# What was measured:
# [1] = system: Beet Armyworm (Spodoptera exigua, LAPHEG); experiment: Bioassay on Beet Armyworm (BAW), 128-well diet tray assay; format: in vivo; conditions: for mortality at 50 µg/cm2: 168 h, 50 μg/cm^2 on artificial diet, second instar larvae, five to seven days, 25° C., read-out: BAW % Control (or Mortality) rating
# Procedure: (§1) Example A: Bioassays on Beet Armyworm (Spodoptera Exigua, LAPHEG) (“BAW”), Corn Earworm (Helicoverpa zea, HELIZE) (“CEW”), and Cabbage Looper (Trichoplusia ni, TRIPNI) (“CL”)
# (§2) Certain molecules disclosed in this document were tested against BAW, CEW, and CL using procedures described in the following examples. In the reporting of the results, the “BAW, CEW, & CL Rating Table” was used (See Table Section).
# Bioassays on BAW were conducted using a 128-well diet tray assay. One to five second instar BAW larvae were placed in each well (3 mL) of the diet tray that had been previously filled with 1 mL of artificial diet to which 50 μg/cm^2 of the test molecule (dissolved in 50 μL of 90:10 acetone-water mixture) had been applied (to each of eight wells) and then allowed to dry. Trays were covered with a clear self-adhesive cover and held at 25° C., 14:10 light-dark for five to seven days. Percent mortality was recorded for the larvae in each well; activity in the eight wells was then averaged. The results are indicated in the table entitled “Table ABC: Biological Results” (See Table Section).
# (§3) Bioassays on BAW and CL were conducted according to the procedures outlined in Example A: Bioassays on Beet Armyworm (“BAW”) and Cabbage Looper (“CL”) using the indicated concentrations.
# [2] = system: Cabbage Looper (Trichoplusia ni, TRIPNI); experiment: Bioassay on Cabbage Looper (CL), 128-well diet tray assay; format: in vivo; conditions: for mortality at 50 µg/cm2: 168 h, 50 μg/cm^2 on artificial diet, second instar larvae, five to seven days, 25° C., read-out: CL % Control (or Mortality) rating
# Procedure: as §1, §2
# Bioassays on CL were conducted using a 128-well diet tray assay. One to five second instar CL larvae were placed in each well (3 mL) of the diet tray that had been previously filled with 1 mL of artificial diet to which 50 μg/cm^2 of the test molecule (dissolved in 50 μL of 90:10 acetone-water mixture) had been applied (to each of eight wells) and then allowed to dry. Trays were covered with a clear self-adhesive cover and held at 25° C., 14:10 light-dark for five to seven days. Percent mortality was recorded for the larvae in each well; activity in the eight wells was then averaged. The results are indicated in the table entitled “Table ABC: Biological Results” (See Table Section).
# as §3
# [3] = 0.05 μg/cm^2, Table CD2 comparative data, read-out: Percent control (or mortality) BAW
# [4] = 0.5 μg/cm^2, Table CD2 comparative data, read-out: Percent control (or mortality) BAW
# [5] = 5 μg/cm^2, Table CD2 comparative data, read-out: Percent control (or mortality) BAW
# [6] = 0.05 μg/cm^2, Table CD2 comparative data, read-out: Percent control (or mortality) CL
# [7] = 0.5 μg/cm^2, Table CD2 comparative data, read-out: Percent control (or mortality) CL
# [8] = 5 μg/cm^2, Table CD2 comparative data, read-out: Percent control (or mortality) CL
# [9] = 0.05 μg/cm^2, read-out: BAW Percent control (or mortality)
# [10] = 0.5 μg/cm^2, read-out: BAW Percent control (or mortality)
# [11] = 5 μg/cm^2, read-out: BAW Percent control (or mortality)
# [12] = 0.05 μg/cm^2, read-out: CL Percent control (or mortality)
# [13] = 0.5 μg/cm^2, read-out: CL Percent control (or mortality)
# [14] = 5 μg/cm^2, read-out: CL Percent control (or mortality)
Structure (SMILES),mortality at 50 µg/cm2 [1] [%],mortality at 50 µg/cm2 [2] [%],other results
"Cc1cc(/C(F)=C/C(c2cc(Cl)c(Cl)c(Cl)c2)C(F)(F)F)ccc1C(=O)N[C@H](C)CSCC(F)(F)F (stereo partly drawn) [F4, 2-Methyl-4-((Z)-1,4,4,4-tetrafluoro-3-(3,4,5-trichlorophenyl)but-1-en-1-yl)-N—((R)-1-((2,2,2-trifluoroethyl)thio)propan-2-yl)benzamide]",50 to 100,50 to 100,"mortality at 0.05 µg/cm2 [1, 3]: 67%; mortality at 0.5 µg/cm2 [1, 4]: 100%; mortality at 5 µg/cm2 [1, 5]: 100%; mortality at 0.05 µg/cm2 [2, 6]: 7%; mortality at 0.5 µg/cm2 [2, 7]: 60%; mortality at 5 µg/cm2 [2, 8]: 100%"
"Cc1cc(/C(F)=C/C(c2cc(Cl)c(Cl)c(Cl)c2)C(F)(F)F)ccc1C(=O)N[C@H](C)C[S+]([O-])CC(F)(F)F (stereo partly drawn) [F5, 2-Methyl-4-((Z)-1,4,4,4-tetrafluoro-3-(3,4,5-trichlorophenyl)but-1-en-1-yl)-N-((2R)-1-((2,2,2-trifluoroethyl)sulfinyl)propan-2-yl)benzamide]",50 to 100,50 to 100,
"Cc1cc(/C(F)=C/C(c2cc(Cl)c(Cl)c(Cl)c2)C(F)(F)F)ccc1C(=O)N[C@H](C)CS(=O)(=O)CC(F)(F)F (stereo partly drawn) [F6, 2-Methyl-4-((Z)-1,4,4,4-tetrafluoro-3-(3,4,5-trichlorophenyl)but-1-en-1-yl)-N—((R)-1-((2,2,2-trifluoroethyl)sulfonyl)propan-2-yl)benzamide]",50 to 100,50 to 100,
"C[C@H](CSCC(F)(F)F)NC(=O)c1ccc(/C(F)=C/C(c2cc(Cl)c(Cl)c(Cl)c2)C(F)(F)F)cc1Br (stereo partly drawn) [F7, 2-Bromo-4-((Z)-1,4,4,4-tetrafluoro-3-(3,4,5-trichlorophenyl)but-1-en-1-yl)-N—((R)-1-((2,2,2-trifluoroethyl)thio)propan-2-yl)benzamide]",50 to 100,50 to 100,"mortality at 0.05 µg/cm2 [1, 3]: 0%; mortality at 0.5 µg/cm2 [1, 4]: 100%; mortality at 5 µg/cm2 [1, 5]: 100%; mortality at 0.05 µg/cm2 [2, 6]: 0%; mortality at 0.5 µg/cm2 [2, 7]: 56%; mortality at 5 µg/cm2 [2, 8]: 100%"
"C[C@H](CS(=O)(=O)CC(F)(F)F)NC(=O)c1ccc(/C(F)=C/C(c2cc(Cl)c(Cl)c(Cl)c2)C(F)(F)F)cc1Br (stereo partly drawn) [F8, 2-Bromo-4-((Z)-1,4,4,4-tetrafluoro-3-(3,4,5-trichlorophenyl)but-1-en-1-yl)-N—((R)-1-((2,2,2-trifluoroethyl)sulfonyl)propan-2-yl)benzamide]",50 to 100,50 to 100,
"C[C@H](C[S+]([O-])CC(F)(F)F)NC(=O)c1ccc(/C(F)=C/C(c2cc(Cl)c(Cl)c(Cl)c2)C(F)(F)F)cc1Br (stereo partly drawn) [F9, 2-Bromo-4-((Z)-1,4,4,4-tetrafluoro-3-(3,4,5-trichlorophenyl)but-1-en-1-yl)-N-((2R)-1-((2,2,2-trifluoroethyl)sulfinyl)propan-2-yl)benzamide]",50 to 100,50 to 100,
"C[C@H](CSCC(F)(F)F)NC(=O)c1ccc(/C(F)=C/C(c2cc(Cl)c(Cl)c(Cl)c2)C(F)(F)F)cc1Cl (stereo partly drawn) [F10, 2-Chloro-4-((Z)-1,4,4,4-tetrafluoro-3-(3,4,5-trichlorophenyl)but-1-en-1-yl)-N—((R)-1-((2,2,2-trifluoroethyl)thio)propan-2-yl)benzamide]",50 to 100,50 to 100,"mortality at 0.05 µg/cm2 [1, 3]: 0%; mortality at 0.5 µg/cm2 [1, 4]: 100%; mortality at 5 µg/cm2 [1, 5]: 100%; mortality at 0.05 µg/cm2 [2, 6]: 6%; mortality at 0.5 µg/cm2 [2, 7]: 100%; mortality at 5 µg/cm2 [2, 8]: 100%"
"C[C@H](CS(=O)(=O)CC(F)(F)F)NC(=O)c1ccc(/C(F)=C/C(c2cc(Cl)c(Cl)c(Cl)c2)C(F)(F)F)cc1Cl (stereo partly drawn) [F11, 2-Chloro-4-((Z)-1,4,4,4-tetrafluoro-3-(3,4,5-trichlorophenyl)but-1-en-1-yl)-N—((R)-1-((2,2,2-trifluoroethyl)sulfonyl)propan-2-yl)benzamide]",50 to 100,50 to 100,
"C[C@H](C[S+]([O-])CC(F)(F)F)NC(=O)c1ccc(/C(F)=C/C(c2cc(Cl)c(Cl)c(Cl)c2)C(F)(F)F)cc1Cl (stereo partly drawn) [F12, 2-Chloro-4-((Z)-1,4,4,4-tetrafluoro-3-(3,4,5-trichlorophenyl)but-1-en-1-yl)-N-((2R)-1-((2,2,2-trifluoroethyl)sulfinyl)propan-2-yl)benzamide]",50 to 100,50 to 100,
"Cc1cc(/C(F)=C/C(c2cc(Cl)c(Cl)c(Cl)c2)C(C)(F)F)ccc1C(=O)N[C@H](C)CSCC(F)(F)F (stereo partly drawn) [F13, 2-Methyl-4-((Z)-1,4,4-trifluoro-3-(3,4,5-trichlorophenyl)pent-1-en-1-yl)-N—((R)-1-((2,2,2-trifluoroethyl)thio)propan-2-yl)benzamide]",50 to 100,50 to 100,
"Cc1cc(/C(F)=C/C(c2cc(Cl)c(Cl)c(Cl)c2)C(C)(F)F)ccc1C(=O)N[C@H](C)CS(=O)(=O)CC(F)(F)F (stereo partly drawn) [F14, 2-Methyl-4-((Z)-1,4,4-trifluoro-3-(3,4,5-trichlorophenyl)pent-1-en-1-yl)-N—((R)-1-((2,2,2-trifluoroethyl)sulfonyl)propan-2-yl)benzamide]",50 to 100,50 to 100,"mortality at 0.05 µg/cm2 [1, 9]: 69%; mortality at 0.5 µg/cm2 [1, 10]: 100%; mortality at 5 µg/cm2 [1, 11]: 100%; mortality at 0.05 µg/cm2 [2, 12]: 100%; mortality at 0.5 µg/cm2 [2, 13]: 100%; mortality at 5 µg/cm2 [2, 14]: 100%"
"C[C@H](CSCC(F)(F)F)NC(=O)c1ccc(/C(F)=C/C(c2cc(Cl)c(Cl)c(Cl)c2)C(C)(F)F)cc1C(F)(F)F (stereo partly drawn) [F15, 4-((Z)-1,4,4-Trifluoro-3-(3,4,5-trichlorophenyl)pent-1-en-1-yl)-N—((R)-1-((2,2,2-trifluoroethyl)thio)propan-2-yl)-2-(trifluoromethyl)benzamide]",50 to 100,50 to 100,
"C[C@H](CS(=O)(=O)CC(F)(F)F)NC(=O)c1ccc(/C(F)=C/C(c2cc(Cl)c(Cl)c(Cl)c2)C(C)(F)F)cc1C(F)(F)F (stereo partly drawn) [F16, 4-((Z)-1,4,4-Trifluoro-3-(3,4,5-trichlorophenyl)pent-1-en-1-yl)-N—((R)-1-((2,2,2-trifluoroethyl)sulfonyl)propan-2-yl)-2-(trifluoromethyl)benzamide]",50 to 100,50 to 100,"mortality at 0.05 µg/cm2 [1, 9]: 100%; mortality at 0.5 µg/cm2 [1, 10]: 100%; mortality at 5 µg/cm2 [1, 11]: 100%; mortality at 0.05 µg/cm2 [2, 12]: 100%; mortality at 0.5 µg/cm2 [2, 13]: 100%; mortality at 5 µg/cm2 [2, 14]: 100%"
"C[C@H](CSCC(F)(F)F)NC(=O)c1ccc(/C(F)=C/C(c2cc(Cl)c(Br)c(Cl)c2)C(F)(F)F)cc1C(F)(F)F (stereo partly drawn) [F24, 4-((Z)-3-(4-Bromo-3,5-dichlorophenyl)-1,4,4,4-tetrafluorobut-1-en-1-yl)-N—((R)-1-((2,2,2-trifluoroethyl)thio)propan-2-yl)-2-(trifluoromethyl)benzamide]",50 to 100,50 to 100,
"CCC(F)(F)C(/C=C(\F)c1ccc(C(=O)N[C@H](C)CS(=O)(=O)CC(F)(F)F)c(C(F)(F)F)c1)c1cc(Cl)c(Cl)c(Cl)c1 (stereo partly drawn) [F38, 4-((Z)-1,4,4-Trifluoro-3-(3,4,5-trichlorophenyl)hex-1-en-1-yl)-N—((R)-1-((2,2,2-trifluoroethyl)sulfonyl)propan-2-yl)-2-(trifluoromethyl)benzamide]",50 to 100,50 to 100,
